{"source": "paper PMC9844538", "about": "(Nature chemical biology, 2022)", "key": {"[1]": {"system": "Mycobacterium tuberculosis H37Rv mc^26020 gyrA G88C", "test": "MIC, broth microdilution", "format": "cell-based"}, "[2]": {"system": "Mycobacterium tuberculosis H37Rv mc^26020 gyrA G88S", "test": "MIC, broth microdilution", "format": "cell-based"}, "[3]": {"system": "M. tuberculosis (GyrA D94N)", "format": "cell-based, Mycobacterium tuberculosis"}, "[4]": {"system": "M. tuberculosis bacA (Rv1819c) mutants (L469P, L470P and S577R)", "format": "cell-based, Mycobacterium tuberculosis"}}, "note": "Starred links: 1 amine or outer side, 2 acyl side, 3 side chain; linkers in the order of their positions; H or OH if unused. Positions of bridges follow the written chain, without caps; N, C: chain ends. Non-standard residues stand in square brackets, D forms with d. Residues, ends and D or L forms follow the SMILES beside them. *: point of attachment. βAsp = O=C(O)[C@H](CC(=O)[*:2])N[*:1]; His(π-Me) = Cn1cncc1C[C@H](N)C(=O)O; For = O=C*", "data": [{"molecule": "COc1c(N2C[C@@H]3CCCN[C@@H]3C2)c(F)cc2c(=O)c(C(=O)O)cn(C3CC3)c12", "note": "[moxifloxacin]", "values": [{"measurement": "susceptibility of GyrA G88C mutant", "setting": "[1]", "value": "resistant"}, {"measurement": "susceptibility of GyrA G88S mutant", "setting": "[2]", "value": "more susceptible"}]}, {"molecule": "C[C@@H](O)[C@H](NC(=O)[C@H](Cc1c[nH]c2ccccc12)NC=O)C(=O)N[C@H](CCCNC(=N)N)C(=O)N[C@@H]1C(=O)N[C@@H](Cc2cncn2C)C(=O)N[C@H](C(=O)O)CC(=O)N[C@H](CO)C(=O)N[C@@H](Cc2ccccc2)C(=O)NCC(=O)N[C@H](CCCNC(=N)N)C(=O)N[C@@H](CO)C(=O)N[C@H](C(=O)O)CC(=O)O[C@@H]1C", "note": "[evybactin] (For-WT[dR]T[His(π-Me)][βAsp][dS]FG[dR]S[βAsp]; ester 4-C)", "values": [{"measurement": "effect of GyrA D94N mutation on susceptibility", "setting": "[3]", "value": "did not have any effect"}]}, {"molecule": "bleomycin", "values": [{"measurement": "MIC (after shift)", "setting": "[4]", "value": 1, "unit": "µg/mL"}]}]}
